Experimental data: US20260207720A1, “COMPOSITIONS AND METHODS FOR TREATING FUNGAL INFECTIONS” (MUCPharm Pty Ltd, priority 2022, published 2026)

Key:
Assay type in all cases: cell-based
[1] = test system: Candida glabrata (clinical isolate); assay: Broth dilution susceptibility test, MIC and percent growth (Example 5)
Procedure: These experiments were conducted to determine the effect of BromAc alone and in combination with existing antifungal drugs against Candida glabrata (clinical isolate).
(§1) A. Preparation of inoculum: • 1. Candida glabrata was grown on Sabouraud dextrose agar (SDA) at 37° C. for 24-48 hrs. • 2. Following this, 5 colonies of 1 mm diameter were picked and suspended in 5 mL sterile saline (0.9% saline) and vortexed for 15 seconds. • 3. Working suspension is prepared as a 1:100 dilution from stock suspension with RPMI 1640 culture medium. • 4. The cell density is adjusted with a spectrophotometer to the transmittance produced by a 0.5 McFarland standard (0.08 to 0.1) OD at 625 nm wavelength.
(§2) • 1. For Bromelain, a stock concentration of 1 mg/ml Bromelain solution was prepared in RPMI media and diluted to test concentrations of 62.4, 31.2, 15.6 and 7.8 μg/ml in RPMI 1640 media. • 2. Acetylcysteine stock concentration is 200 mg/ml, diluted to 40, 20, 10, and 5 mg/ml concentrations in RPMI 1640 medium. • 3. These concentrations are prepared at 2× of the required concentrations in the final assay plate.
(§3) Antifungal stock concentrations are as follows— • 1. Amphotericin B, Stock concentration: 250 μg/ml in water. • 2. Posaconazole, Original concentration: 300 mg in 16.7 ml, Working stock concentration: 1 mg/ml in DMSO. • 3. Fluconazole, Original concentration: 100 mg in 50 ml, Working stock concentration: 1 mg/ml in DMSO. • 4. The final concentration was prepared in RPMI 1640 media and concentrations range was 0.01-0.5 μg/mL for amphotericin B, 0.01-2 μg/mL for posaconazole and 0.01-64 μg/mL for fluconazole. • 5. These concentrations were prepared at 2× of the required concentrations in the final assay plate.
(§4) • 1. Wells of the 96-well plates were inoculated with appropriate concentrations and volumes of drugs. • 2. Sterility control and growth controls are included in each plate. • 3. Each 96-well plate (except the control wells) contains 100 μL of double strength (twice the final antifungal drug) concentrations. • 4. 100 μL of the fungal suspension is added to 96-well plates (except the sterility control wells). • 5. The growth control wells contained 100 μL of sterile drug-free medium and 100 μL of inoculum suspension, while the sterility control wells contained 200 μl of sterile drug-free medium. • 6. Plates are then incubated at 37° C. and read at 625,430, and 530 nm wavelengths. • 7. Data from 24 hours and absorbance at 625 nm were used for analysis.

[2] = test system: Candida tropicalis; assay: Susceptibility assay of antifungals with BromAc (Example 4); details: antifungal in combination with BromAc (5 mg/ml Acetylcysteine+12.5 μg/ml Bromelain) vs alone
Procedure: (§5) The in vitro antifungal properties of Bromelain, Acetylcysteine, BromAc, Amphotericin B, Isavuconazole, Fluconazole and Posaconazole were determined using a broth microdilution method in round bottom 96 well plates in accordance with standard procedures defined by the Clinical Laboratory Standards Institute (CLSI).
(§6) Unless otherwise described, fungal cultures were grown on potato dextrose agar plates at 35° C. until mature (appearance of conidia) and used to prepare suspensions in sterile water. Suspensions were diluted in RPMI 1:60. These suspensions were then added in equal volume to solutions containing the candidate species described above and incubated at 35° C. for 24 hr. Plates were then analysed for fungal growth inhibition and MIC values determined.
(§7) BromAc (5 mg/ml Acetylcysteine+12.5 μg/ml Bromelain) was used in combination with Amphotericin B, Isavuconazole, Posaconazole and Fluconazole. The MIC values of these four antifungal agents against the fungus described below were calculated and compared with their corresponding MIC values in the presence of BromAc, using the standard susceptibility assays described above.
(§8) The fungal strains set out in Table 2, all of which were sourced from a range of clinical isolates from Australian hospitals, were used in these experiments to gain a further understanding of the efficacy of BromAc in combination with Amphotericin B, Isavuconazole, Posaconazole and Fluconazole.

[3] = test system: Candida auris; assay: as above; details: Candida aurus; antifungal in combination with BromAc (5 mg/ml Acetylcysteine+12.5 μg/ml Bromelain) vs alone
Procedure: as §5, §6, §7, §8

[4] = test system: Candida glabrata; assay: as above; details: antifungal in combination with BromAc (5 mg/ml Acetylcysteine+12.5 μg/ml Bromelain) vs alone
Procedure: as §5, §6, §7, §8

[5] = test system: Candida kruseii; assay: as above; details: antifungal in combination with BromAc (5 mg/ml Acetylcysteine+12.5 μg/ml Bromelain) vs alone
Procedure: as §5, §6, §7, §8

[6] = test system: Cryptococcus; assay: as above
Procedure: as §5, §6, §7, §8

[7] = test system: Candida Krusei (ATCC strain 6258); assay: Broth dilution susceptibility test, MIC and percent growth (Example 6)
Procedure: as §1, §2, §3, §4
These experiments were conducted to determine the effect of BromAc alone and in combination with existing antifungal drugs against Candida Krusei (ATCC strain 6258).
The method used in these experiments is essentially the same as that described above in Example 5.

[8] = test system: Aspergillus fumigatus (ATCC strain 13697); assay: Broth dilution susceptibility test, MIC and percent growth (Example 7)
Procedure: as §1, §2, §3, §4
These experiments were conducted to determine the efficacy of BromAc alone and in combination with existing antifungal drugs against Aspergillus fumigatus (ATCC strain 13697).
The method used in these experiments is essentially the same as that described above in Example 5. In these experiments, however, echinocandins such as […] Caspofungin are used in place of the azole antifungals described in earlier examples.

Row | SMILES | MIC ([1]; Nakaseomyces glabratus, 50% growth inhibition, 24 hours, 625 nm) | effect at lower concentration compared to growth control (in words) ([1]; concentrations lower than the MIC) | Observed inhibitory effect [2] | Observed inhibitory effect [3] | Observed inhibitory effect [4] | Observed inhibitory effect [5] | Observed inhibitory effect ([6]; antifungal in combination with BromAc (5 mg/ml Acetylcysteine+12.5 μg/ml Bromelain) vs alone) | isolates with more than 10× increase ([6]; antifungal with BromAc) | MIC ([7]; Pichia kudriavzevii, ATCC6258, 50% growth inhibition, FIG. 11) | inhibition at 32 µg/mL ([7]; Pichia kudriavzevii, ATCC6258, Posaconazole 1 ug/ml, Fluconazole 32 μg/ml, read-out: activity (growth inhibition) at its MIC) | effect at lower doses / concentrations compared to GC (in words) ([7]; below the MIC (Posaconazole 0.03 μg/ml)) | MIC ([8]; FIGS. 13a, 14a) | effect at lower concentrations (in words) ([8]; Voriconazole 1 μg/ml and 0.5 μg/ml, Caspofungin 0.25 μg/ml and 0.125 μg/ml)
1 | OC(Cn1cncn1)(Cn1cncn1)c1ccc(F)cc1F [Fluconazole] | > 32 µg/mL | no change | Strong (Strong = 5-10x (or greater) inhibitory effect) | No effect | Strong (Strong = 5-10x (or greater) inhibitory effect) | Strong (Strong = 5-10x (or greater) inhibitory effect) | Strong (Strong = 5-10x (or greater) inhibitory effect) | 5 of 5 | 32 µg/mL | 50% | no efficacy |  | 
2 | CC[C@H](C)C[C@H](C)CCCCCCCCC(=O)N[C@H]1C[C@@H](O)[C@@H](NCCN)NC(=O)[C@@H]2[C@@H](O)CCN2C(=O)[C@H]([C@H](O)CCN)NC(=O)[C@H]([C@H](O)[C@@H](O)c2ccc(O)cc2)NC(=O)[C@@H]2C[C@@H](O)CN2C(=O)[C@H]([C@@H](C)O)NC1=O [Caspofungin] |  |  |  |  |  |  |  |  |  |  |  | > 1 µg/mL | almost no inhibitory effect
